According to patent US10800791B2, “Triazole ACC inhibitors and uses thereof” (Gilead Apollo, LLC, priority 2015, dated 2020):
Converted amounts (≈) assume the structure as drawn. Where two headings read alike, the source gives them in different places.

Legend:
[1] = biological target: human (hACC2) (Homo sapiens, UniProt O00763); assay: In vitro ACC inhibition assay (ADP-Glo), hACC2; format: biochemical; settings: 5 nM ACC2, 20 μM ATP, 20 μM acetyl-CoA
Protocol: The detailed procedure is as follows. […] 10 μL ADP glo reagent was added. […] 20 μL kinase detection reagent was added.

[2] = tested on: C. albicans; assay: Antifungal Activity Assay (broth microtiter MIC), C. albicans; format: cell-based, Candida albicans; settings: Candida albicans, ATCC90028, 48 h, ATCC 90028, 3 replicates, MIC recorded at 48 h, read-out: MIC, C. albicans ATCC 90028
How it was run: (§1)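 Susceptibility was determined by CLSI M27-A3 broth microdilution in RPMI 1640 buffered with MOPS. Growth inhibition was scored visually after 48 h.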

[3] = tested on: C. krusei; assay: Antifungal Activity Assay (broth microtiter MIC), C. krusei; format: cell-based, Candida krusei; settings: Pichia kudriavzevii, ATCC6258, 48 h, ATCC 6258, 3 replicates, MIC recorded at 48 h, read-out: MIC, C. krusei ATCC 6258
How it was run: as §1

[4] = tested on: C. parapsilosis; assay: Antifungal Activity Assay (broth microtiter MIC), C. parapsilosis; format: cell-based, Candida parapsilosis; settings: Lodderomyces parapsilosis, ATCC22019, 48 h, ATCC 22019, 3 replicates, MIC recorded at 48 h, read-out: MIC, C. parapsilosis ATCC 22019
How it was run: as §1

[5] = tested on: Collectotrichum graminicola (Cg); assay: Growth inhibition assay of fungal pathogens, Cg; format: cell-based; settings: 48 h, Collectotrichum graminicola, read-out: Concentration at 90% Inhibition Cg
How it was run: (§2)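 Spores diluted in 17% V8 liquid media and incubated with compound at final 50, 10, 2 ppm or 2, 0.4, 0.08 ppm (2% DMSO). OD600 plus visual ratings at 24 and 48 hours, blank-subtracted; percent growth inhibition from 48 h readings relative to 2% DMSO control.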

[6] = tested on: Diplodia maydis (Dm); assay: Growth inhibition assay of fungal pathogens, Dm; format: cell-based; settings: Stenocarpella maydis, 48 h, Diplodia maydis, read-out: Concentration at 90% Inhibition Dm
How it was run: as §2

[7] = tested on: Fusarium moniliforme (Fm); assay: Growth inhibition assay of fungal pathogens, Fm; format: cell-based; settings: Fusarium verticillioides, 48 h, Fusarium moniliforme, read-out: Concentration at 90% Inhibition Fm
How it was run: as §2

[8] = tested on: Fusarium virguliforme (Fv); assay: Growth inhibition assay of fungal pathogens, Fv; format: cell-based; settings: 48 h, read-out: Concentration at 90% Inhibition Fv
How it was run: as §2

[9] = tested on: Phytophthora capsici (Pc); assay: Growth inhibition assay of fungal pathogens, Pc; format: cell-based; settings: 48 h, read-out: Concentration at 90% Inhibition Pc
How it was run: as §2

[10] = tested on: Rhizoctonia solani (Rs); assay: Growth inhibition assay of fungal pathogens, Rs; format: cell-based; settings: 48 h, mycelial plugs, read-out: Concentration at 90% Inhibition Rs
[11] = tested on: Septoria tritici (St); assay: Growth inhibition assay of fungal pathogens, St; format: cell-based; settings: Zymoseptoria tritici, 48 h, Septoria tritici, read-out: Concentration at 90% Inhibition St
How it was run: as §2

[12] = growth inhibition at 48 hours vs 2% DMSO control
[13] = growth inhibition vs 2% DMSO control at 48 hours

human (hACC2), sequence (O00763 whole entry): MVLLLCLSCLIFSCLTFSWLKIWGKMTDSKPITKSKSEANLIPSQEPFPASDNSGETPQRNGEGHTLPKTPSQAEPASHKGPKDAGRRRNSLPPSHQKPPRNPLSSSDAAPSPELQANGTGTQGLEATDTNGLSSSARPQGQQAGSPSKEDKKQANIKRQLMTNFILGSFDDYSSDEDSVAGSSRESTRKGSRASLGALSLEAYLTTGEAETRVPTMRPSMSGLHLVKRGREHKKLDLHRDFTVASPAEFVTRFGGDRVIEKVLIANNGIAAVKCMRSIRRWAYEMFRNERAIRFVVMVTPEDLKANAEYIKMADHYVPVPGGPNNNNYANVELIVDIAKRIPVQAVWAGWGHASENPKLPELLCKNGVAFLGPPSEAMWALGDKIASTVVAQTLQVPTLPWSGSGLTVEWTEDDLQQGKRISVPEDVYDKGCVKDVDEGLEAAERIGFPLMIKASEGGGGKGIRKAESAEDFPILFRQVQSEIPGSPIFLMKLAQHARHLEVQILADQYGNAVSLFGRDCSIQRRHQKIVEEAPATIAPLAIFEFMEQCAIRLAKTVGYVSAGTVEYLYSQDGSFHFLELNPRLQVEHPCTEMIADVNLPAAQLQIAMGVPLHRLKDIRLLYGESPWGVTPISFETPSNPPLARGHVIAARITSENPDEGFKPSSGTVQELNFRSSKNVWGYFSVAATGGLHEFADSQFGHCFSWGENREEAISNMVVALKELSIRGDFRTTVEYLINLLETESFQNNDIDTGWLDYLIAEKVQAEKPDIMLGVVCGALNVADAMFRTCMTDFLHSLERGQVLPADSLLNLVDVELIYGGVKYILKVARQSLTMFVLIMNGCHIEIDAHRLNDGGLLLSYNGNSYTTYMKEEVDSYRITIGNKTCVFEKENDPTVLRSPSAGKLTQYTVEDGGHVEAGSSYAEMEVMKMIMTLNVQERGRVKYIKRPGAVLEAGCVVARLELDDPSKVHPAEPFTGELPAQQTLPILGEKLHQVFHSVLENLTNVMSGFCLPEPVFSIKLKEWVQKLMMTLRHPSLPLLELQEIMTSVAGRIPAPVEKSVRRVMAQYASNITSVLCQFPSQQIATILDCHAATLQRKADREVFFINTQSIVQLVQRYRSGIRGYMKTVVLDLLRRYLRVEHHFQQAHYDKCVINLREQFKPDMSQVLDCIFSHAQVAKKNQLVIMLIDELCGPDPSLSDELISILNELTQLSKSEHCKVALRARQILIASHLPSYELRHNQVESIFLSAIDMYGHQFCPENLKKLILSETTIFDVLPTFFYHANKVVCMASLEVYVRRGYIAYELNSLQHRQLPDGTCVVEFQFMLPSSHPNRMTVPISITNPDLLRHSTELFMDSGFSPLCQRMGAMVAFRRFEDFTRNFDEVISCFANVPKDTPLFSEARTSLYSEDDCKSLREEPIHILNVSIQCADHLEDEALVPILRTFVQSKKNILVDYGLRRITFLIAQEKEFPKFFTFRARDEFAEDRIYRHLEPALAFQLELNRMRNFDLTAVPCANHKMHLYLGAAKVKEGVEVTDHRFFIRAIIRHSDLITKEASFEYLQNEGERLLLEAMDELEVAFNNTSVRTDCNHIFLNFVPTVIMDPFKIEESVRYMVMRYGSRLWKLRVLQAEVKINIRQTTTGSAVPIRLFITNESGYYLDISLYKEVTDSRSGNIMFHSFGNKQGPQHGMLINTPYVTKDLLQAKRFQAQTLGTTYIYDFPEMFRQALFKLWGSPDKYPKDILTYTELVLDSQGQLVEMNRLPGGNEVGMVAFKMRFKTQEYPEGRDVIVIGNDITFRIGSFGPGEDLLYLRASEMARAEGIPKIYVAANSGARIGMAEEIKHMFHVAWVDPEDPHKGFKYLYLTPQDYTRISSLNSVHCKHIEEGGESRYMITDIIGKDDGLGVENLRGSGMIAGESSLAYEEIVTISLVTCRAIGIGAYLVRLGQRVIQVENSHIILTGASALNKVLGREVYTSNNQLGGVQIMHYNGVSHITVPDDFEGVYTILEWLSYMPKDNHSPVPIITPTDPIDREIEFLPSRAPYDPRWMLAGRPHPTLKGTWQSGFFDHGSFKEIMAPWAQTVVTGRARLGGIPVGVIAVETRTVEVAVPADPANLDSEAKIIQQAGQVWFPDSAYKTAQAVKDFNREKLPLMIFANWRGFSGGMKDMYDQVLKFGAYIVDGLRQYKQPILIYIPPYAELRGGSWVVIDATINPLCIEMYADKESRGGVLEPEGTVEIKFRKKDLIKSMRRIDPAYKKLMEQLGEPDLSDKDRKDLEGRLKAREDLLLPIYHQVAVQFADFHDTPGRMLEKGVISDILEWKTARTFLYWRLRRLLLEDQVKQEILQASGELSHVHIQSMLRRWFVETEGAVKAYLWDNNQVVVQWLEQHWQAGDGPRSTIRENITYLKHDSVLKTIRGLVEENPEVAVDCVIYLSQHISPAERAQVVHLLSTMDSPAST

Row | SMILES | IC50 ([1]; Table 2a) | IC50 ([1]; Table 2b, additional results) | MIC ([2]; Table 3a) | MIC ([2]; Table 3b (additional results)) | MIC ([3]; Table 3a) | MIC ([3]; Table 3b (additional results)) | MIC ([4]; Table 3a) | MIC ([4]; Table 3b (additional results)) | IC90 [5, 12] | IC90 [5, 13] | IC90 [6, 12] | IC90 [6, 13] | IC90 [7, 12] | IC90 [7, 13] | IC90 [8, 12] | IC90 [8, 13] | IC90 [9, 12] | IC90 [9, 13] | IC90 [10, 12] | IC90 [10, 13] | also measured
1 | COc1ccc(F)cc1[C@H](Cn1c(=O)n(C(C)(C)C(=O)N2CCCC2)c(=O)c2c(C)c(-n3nccn3)sc21)OCC(C)C [Compound I-12, (R)-1-(2-(5-fluoro-2-methoxyphenyl)-2-isobutoxyethyl)-5-methyl-3-(2-methyl-1-oxo-1-(pyrrolidin-1-yl)propan-2-yl)-6-(2H-1,2,3-triazol-2-yl)thieno[2,3-d]pyrimidine-2,4(1H,3H)-dione] | 10 to 40 nM | 10 to 40 nM | 1.1 to 2 µg/mL (≈ 1.8 to 3.26 µM) | 0.25 to 1 µg/mL (≈ 0.408 to 1.63 µM) | 0.25 to 1 µg/mL (≈ 0.408 to 1.63 µM) | 0.25 to 1 µg/mL (≈ 0.408 to 1.63 µM) | 2.1 to 4 µg/mL (≈ 3.43 to 6.53 µM) | 1.01 to 2 µg/mL (≈ 1.65 to 3.26 µM) | 0.08 µg/mL (≈ 0.131 µM) | 0.08 µg/mL (≈ 0.131 µM) | 0.08 µg/mL (≈ 0.131 µM) | 0.08 µg/mL (≈ 0.131 µM) | 0.08 µg/mL (≈ 0.131 µM) | 0.08 µg/mL (≈ 0.131 µM) | 0.4 µg/mL (≈ 0.653 µM) | 0.4 µg/mL (≈ 0.653 µM) | > 50 µg/mL | > 50 µg/mL | 0.08 µg/mL (≈ 0.131 µM) | 0.08 µg/mL (≈ 0.131 µM) | IC90 [11, 12]: 2 µg/mL (≈ 3.26 µM); IC90 [11, 13]: 10 µg/mL (≈ 16.3 µM)
2 | COc1ccccc1[C@H](Cn1c(=O)n(C(C)(C)C(N)=O)c(=O)c2c(C)c(-n3nccn3)sc21)OC1CCOCC1 [Compound I-14, (R)-2-(1-(2-(2-methoxyphenyl)-2-((tetrahydro-2H-pyran-4-yl)oxy)ethyl)-5-methyl-2,4-dioxo-6-(2H-1,2,3-triazol-2-yl)-1,4-dihydrothieno[2,3-d]pyrimidin-3(2H)-yl)-2-methylpropanamide] | 1 to 5 nM | 1 to 5 nM | 0.25 to 1 µg/mL (≈ 0.44 to 1.76 µM) | 0.25 to 1 µg/mL (≈ 0.44 to 1.76 µM) | 0.25 to 1 µg/mL (≈ 0.44 to 1.76 µM) | 1.01 to 2 µg/mL (≈ 1.78 to 3.52 µM) | 1.1 to 2 µg/mL (≈ 1.93 to 3.52 µM) | 2.01 to 4 µg/mL (≈ 3.53 to 7.03 µM) | 10 µg/mL (≈ 17.6 µM) | > 50 µg/mL | 10 µg/mL (≈ 17.6 µM) | > 50 µg/mL | 0.08 µg/mL (≈ 0.141 µM) | 0.08 µg/mL (≈ 0.141 µM) | 10 µg/mL (≈ 17.6 µM) | > 50 µg/mL | > 50 µg/mL | > 50 µg/mL | 10 µg/mL (≈ 17.6 µM) | > 50 µg/mL | IC90 [11, 12]: > 50 µg/mL; IC90 [11, 13]: > 50 µg/mL
